Experiments:
[1] = test system: Salmonella typhimurium strain SJW1103; assay: Bacterial growth assay; type: cell-based; settings: 5 μl of 100 mM compound in DMSO added to 10 ml LB, 303 K, OD600 read at 2, 4, 6, 8 and 10 hr; FIG. 6
Protocol: The effect of the candidate compounds on the viability of bacteria cultures were first tested before analyzing their effect on the flexibility of FlhBC. 80 compounds out of the 237 compounds were purchased from KISHIDA CHEMICAL Co., Ltd according to the ranking. The Salmonella typhimurium strain SJW1103 was grown in LB medium at 303 K. Overnight cultures were diluted in Fresh LB medium to an optical density at 600 nm (OD600) of 0.1. Each of 5 μl of 100 mM candidate compounds solubilized in DMSO or DMSO alone as a control was added into 10 ml LB medium in 50-ml volume polypropylene conical tubes. For obtaining growth curves of the cell under the presence of each chemical, 0.2 ml of the culture volume were removed at every 2 h (2, 4, 6, 8 and 10 hr) and diluted with 1 ml of LB to measure absorbance at OD600.

secretion of FlgD = assay: Secretion assay (Western blot of culture supernatant with anti-FlgD antibody); type: cell-based, Salmonella typhimurium; settings: supernatant of 8.0 hr culture from the growth assay, strain SJW1103; FIG. 7a and 7b
Protocol: Then, effects of the selected compounds on different type III secretion phenotypes were assessed. 1 ml of the cell suspensions of 8.0 hr culture in the above-growth assay were centrifuged at 13,200 rpm (16,100 g) for 10 min. The supernatant fractions (0.9 ml) were fractionated into new tubes and mixed with 100% trichloroacetic acid thoroughly. The fractions were kept on ice at least 1 h to precipitate secreted proteins. After centrifugation at 15,400 rpm for 30 min, the precipitated supernatant fractions were resuspended in 0.02 ml of 1 M Tris base and stored −30° C. until use. Samples for SDS-PAGE analysis were prepared by adding 5× SDS loading Buffer and then heat at 95° C. for 5 min. SDS-PAGE analyses were carried out at the condition of 200V for 30 min using premade gels purchased from Bio-rad. Electro-blotting onto PVDF membrane was performed with iBlot from Invitrogen and the membranes were developed with Chromogenic Immuno-detection Kit (Invitrogen) using a custom antibody raised against FlgD, a flagellar protein (from Prof. Keiichi Namba, Osaka University). Images were digitized as gray scale color with ChemDoc (Bio-rad). Kaleidoscope (Bio-rad) was used as a molecular marker.

## COc1cc(Cc2cnc(N)nc2N)cc(OC)c1OC [compound 64, 5-(3,4,5-Trimethoxybenzyl)pyrimidine-2,4-diamine]
[1]
  effect on bacterial growth (growth curve, OD600): slight growth delay
Secretion of FlgD
  inhibition of FlgD secretion (type III secretion system): inhibit the secretion of FlgD

## Cn1c(=O)c2c(ncn2CC(O)CO)n(C)c1=O (stereo not shown) [compound 47, 7-(2,3-dihydroxypropyl)-1,3-dimethyl-3,7-dihydro-1H-purine-2,6-dione]
[1]
  effect on bacterial growth (growth curve, OD600): slight growth delay
Secretion of FlgD
  inhibition of FlgD secretion (type III secretion system): inhibit the secretion of FlgD

— patent publication US9809595B2 (priority 2013, dated 2017)
